From PubChem BioAssay (NCI)
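These data come from cells grown in 96-well plates and exposed to compound for 48 hours at five concentrations. TGI: total growth inhibition.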

How the values were obtained:
Test in all cases: inhibition of tumour cell growth, NCI panel, 48 h
CAKI-1 renal = test system: CAKI-1 renal
CCRF-CEM leukemia = test system: CCRF-CEM leukemia
HL-60(TB) leukemia = test system: HL-60(TB) leukemia
LOX IMVI melanoma = test system: LOX IMVI melanoma
MALME-3M melanoma = test system: MALME-3M melanoma
OVCAR-5 ovarian = test system: OVCAR-5 ovarian
SK-MEL-2 melanoma = test system: SK-MEL-2 melanoma
SNB-19 CNS = test system: SNB-19 CNS
SNB-75 CNS = test system: SNB-75 CNS
U251 CNS = test system: U251 CNS

Measured: TGI

CCO[C@@H]1C2C=CC(C2)[C@H]1[N+](=O)[O-] (stereo not given in full)
> 100 µM: all assays above
